From US20250262209A1, “TREATMENT OF GASTROINTESTINAL DISEASES” (Aclipse Two, Inc., priority 2022, published 2025)

Tests used:
[1] = system: colon of DSS-induced IBD model mice; assay: Colon histology (H&E score, PAS goblet cells) in the DSS-induced IBD model; format: in vivo; details: vs model
Method: H&E staining: Colon sections were cut at 4 μm in thickness, dried in an oven for 1 hour and stained with H&E solution with our standard protocol. Briefly, the sections were stained with hematoxylin solution for 90 seconds. Then stain in eosin solution for 30 seconds. Then dehydrated and coverslipped for the subsequent image analysis. H&E stained images was scanned using LEICA Aperio® GT450. The severity of inflammatory cell infiltration and tissue damage were semi-quantitatively evaluated according to pathology score criteria in Table 7.
PAS staining: Colon sections were cut at 4 μm in thickness, dried in an oven for 1 hour and stained with PAS kit (Gefan #M035) with our standard protocol. Briefly, the sections were stained with periodic acid working solution for 8 minutes. Then wash with distilled water for 5 minutes, three times. Stain in Schiff solution for 10 minutes. Transform to distilled water for 5 minutes, three times. Then dehydrated and coverslipped for the subsequent image analysis.
The total length of the colon was measured by a ruler and then was divided into 3 segments, 100 microns in the middle of each segment was taken out for goblet cell calculation. In each 100 microns of colon tissue, the number of goblet cells was calculated, then the average number of goblet cells from three parts was used for next analysis.
In vivo animal data were presented as mean±SEM. Statistical analysis was performed by one-way ANOVA followed by Dunnett's multiple comparison. […] The difference was considered significance when p<0.05.

[2] = system: monocytes differentiated to M1 macrophage; assay: M1 macrophage differentiation assay; format: cell-based, human; details: TNF-α, IL-1b, IL-6, IL-12, IL-23 in supernatant on day 7 (MSD); concentrations of Table 9
Description: The purpose of this study was to evaluate the effects of lobeglitazone and other thiazolidinediones on M1 macrophage differentiation. The test articles and vehicles used in this study were lobeglitazone sulfate, pioglitazone HCl, and rosiglitazone.
M1 macrophage differentiation assay timeline was as follows in Table 8.
Drug concentrations tested in the M1 differentiation assay are as in Table 9.
• (1) Revive frozen monocytes. • (2) Count cells and adjust the cell density to 0.5×10^6 cells/ml with fresh complete differentiation medium (RPMI1640+10% FBS+1% PS plus GM-CSF or M-CSF at 50 ng/ml). • (3) Seed isolated monocyte 100 μL per well on 96-well plate. • (4) Add test articles as the plate map using D300e (final concentration in μM). • (5) Differentiate the monocyte to macrophage in the presence of GM-CSF to M1, or M-CSF to M2 for 5 days. • (6) On day 5, add cytokines at 2× final concentration. • (6a) Prepare medium containing GM-CSF for M1 and M-CSF for M2. • (6b) Add corresponding activator to reach 2× final working concentration: (i) IFNγ stock 0.2 mg/ml: add 2.5 μL stock into 5 ml complete differentiation medium for 100 ng/ml; (ii) LPS stock 1.0 mg/ml: dilute to 20 μg/ml by mixing 2 μL stock into 100 μl medium; then add 10 μl 20 μg/ml LPS to 5 ml complete differentiation medium for 40 ng/ml; (iii) IL-4 stock 0.1 mg/ml: dilute 2 μL stock into 5 ml complete differentiation medium for 40 ng/ml. • (6c) Add 100 μL cytokine containing differentiating medium to each well, and total volume of each well is 200 μL. • (6d) Add test compound again using D300e. Make sure to set the final volume as 200 μL. • (7) Incubate cytokine and test compound for 48 hours. • (8) On day 7, spin down the plates at 300×g for 5 min and collect the supernatant for cytokine quantification using MSD. • (9) M1 associated macrophage cytokines TNF-α, IL-1b, IL-6, IL-12, and IL-23 were quantified.

[3] = system: monocytes from PBMC, M1-to-M2 macrophage repolarization; assay: M1-to-M2 macrophage repolarization assay; format: cell-based, human
Description: The purpose of this study was to evaluate the effects of lobeglitazone and other thiazolidinediones on M1-to-M2 macrophage repolarization. The test articles and vehicles used in this study were lobeglitazone sulfate, pioglitazone HCl, and rosiglitazone.
M1-to-M2 macrophage repolarization assay timeline were as follows in Table 13.
Drug concentrations tested in the M1 differentiation assay are as in Table 14.
• (1) Isolate monocytes from PBMC using StemCell® monocyte isolation kit. • (2) Count cell and adjust the cell density to 0.5×10^6 cells/ml with fresh complete differentiation medium (add 10 μl M-CSF stock (100 μg/ml) 10 ml cell mixture to a final concentration of 50 ng/ml). • (3) Seed isolated monocyte 100 μL per well on 96-well plate. • (4) On day 4, add additional 100 μl medium containing M-CSF • (5) On day 6, add stimulator at 5× final concentration (200 μL medium in each well) to a final concentration of 50 ng/ml. • (6) On day 8, remove medium and replenish with 200 μL cytokine free medium, then add test compound (final concentration in μM) and incubate for 4 days. • (7) On day 12, add IL-4 and incubate for 2 days (add 50 μL of 100 ng/ml IL-4 to each well containing 200 μL medium to reach 20 ng/ml). • (8) On day 14, spin down the plates at 300×g for 5 min and collect the supernatant for cytokine quantification. • (9) M1 and M2 associated macrophage cytokines of interest are as follows in Table 15.
The cells are then collected for flow analysis of viability/CD11c/CD163/CD206.
Cell surface marker CD163, CD11c, and CD206 were applied to characterize M2 repolarization via flow cytometry. Controls included No stain and staining with all surface marker antibodies to confirm the optimization of gating strategy.

SMILES: COc1ccc(Oc2cc(N(C)CCOc3ccc(CC4SC(=O)NC4=O)cc3)ncn2)cc1 (stereo not drawn) [lobeglitazone, 5-(4-(2-((6-(4-Methoxyphenoxy)pyrimidin-4-yl)(methyl)amino)ethoxy)benzyl)thiazolidine-2,4-dione]
- H&E total score (inflammation/tissue damage) ([1]; 0.36 mg/kg PO QD 10 days): led to decrease
- number of goblet cells (PAS staining) ([1]; 0.36 mg/kg PO QD 10 days): trended to increase
- H&E total score (inflammation/tissue damage) ([1]; 1.20 mg/kg PO QD 10 days): led to decrease
- number of goblet cells (PAS staining) ([1]; 1.20 mg/kg PO QD 10 days): trended to increase
- H&E total score (inflammation/tissue damage) ([1]; 3.61 mg/kg PO QD 10 days): led to decrease
- number of goblet cells (PAS staining) ([1]; 3.61 mg/kg PO QD 10 days): did not change
- M1 macrophage cytokines expression [2]: did not show the promotion
- concentration at which M1-to-M2 repolarization was promoted (M2 macrophage surface markers, flow cytometry) ([3]; CD163, CD11c, CD206, lowest concentration with effect): ~0.05 µM
- concentration showing remarkable promotion of MDC expression ([3]; cytokine analysis (MSD), day 14 supernatant): 0.1 µM
